Literature values, collected in patent US9326930B2, “Calcium sequestration compositions and methods of treating skin pigmentation disorders and conditions” (NEOCUTIS S.A., priority 2009, dated 2016).

Columns and labels:
[1] = tested on: B16F0 melanoma cells; conditions: L-forms, not D-forms
[2] = biological target: melanocortin receptor 1 (MC1R) (Homo sapiens, UniProt Q01726)
[3] = tested on: melanocyte-keratinocyte co-cultures; conditions: intracellular calcium in keratinocytes chelated

melanocortin receptor 1 (MC1R), sequence (Q01726 whole entry, species assumed): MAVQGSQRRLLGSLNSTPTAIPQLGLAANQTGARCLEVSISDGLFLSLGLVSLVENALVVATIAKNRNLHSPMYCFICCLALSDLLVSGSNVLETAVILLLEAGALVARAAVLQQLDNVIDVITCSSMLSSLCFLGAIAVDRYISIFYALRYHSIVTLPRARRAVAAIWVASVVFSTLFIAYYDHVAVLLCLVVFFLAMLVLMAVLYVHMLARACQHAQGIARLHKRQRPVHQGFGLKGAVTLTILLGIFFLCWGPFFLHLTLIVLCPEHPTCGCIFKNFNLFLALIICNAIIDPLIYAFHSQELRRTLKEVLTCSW

Row | Compound | effect on pigmentation [1] | further results
1 | NCC(=O)O [glycine] | hypopigmenting effects | –
2 | C=CCCCCCCCCC(=O)N[C@@H](Cc1ccccc1)C(=O)O [undecylenoyl phenylalanine] | – | affinity to MC1R [2]: affinity towards MC1R; action on α-MSH ([2]; in vitro): antagonist of α-MSH
3 | CC(C)C[C@H](N)C(=O)O [L-leucine] | hypopigmenting effects | –
4 | CC[C@H](C)[C@H](N)C(=O)O [L-isoleucine] | hypopigmenting effects | –
5 | CC(=O)OCOC(=O)CN(CC(=O)OCOC(C)=O)c1ccccc1OCCOc1ccccc1N(CC(=O)OCOC(C)=O)CC(=O)OCOC(C)=O [BAPTA-AM, 1,2-bis-(o-aminophenoxy)-ethane-N,N,N′,N′-tetraacetic acid tetra-acetoxymethyl ester] | – | melanin transfer [3]: melanin transfer was inhibited
6 | C[C@H](N)C(=O)O [L-alanine] | hypopigmenting effects | –
